# Test results as given in the supplement of paper PMC10307832.
# Columns and labels:
# Assay in all cases: relative viability (nuclei count vs DMSO), 5 days (fraction); higher = more cells survive
# Gemcitabine + Vorinostat = compound: Nc1ccn([C@@H]2O[C@H](CO)[C@@H](O)C2(F)F)c(=O)n1 [Gemcitabine] + O=C(CCCCCCC(=O)Nc1ccccc1)NO [Vorinostat] (partner 1 µM)
# Procedure, shortened: (§1)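 A single step with final 0.05% Triton X-100, 1% formaldehyde and 1 ug/ml Hoechst fixed the cells and stained nuclei 5 days after treatment. Lung cancer cell lines in 1536-well plates had been treated by pin tool the day after seeding with one drug alone or a fixed anchor-drug dose plus five library-drug doses (not always all listed) in √10 steps, and nuclei were counted on 4× images. Relative viability is the ratio of nuclei in treated wells to nuclei in vehicle wells, taken as the median of duplicate plates.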
# Gemcitabine + Pemetrexed = compound: Nc1ccn([C@@H]2O[C@H](CO)[C@@H](O)C2(F)F)c(=O)n1 [Gemcitabine] + Nc1nc2[nH]cc(CCc3ccc(C(=O)N[C@@H](CCC(=O)O)C(=O)O)cc3)c2c(=O)[nH]1 [Pemetrexed] (partner 0.2 µM)
# Procedure, shortened: as §1
# Gemcitabine + Linsitinib = compound: Nc1ccn([C@@H]2O[C@H](CO)[C@@H](O)C2(F)F)c(=O)n1 [Gemcitabine] + C[C@]1(O)C[C@@H](c2nc(-c3ccc4ccc(-c5ccccc5)nc4c3)c3c(N)nccn32)C1 [Linsitinib] (partner 1 µM)
# Procedure, shortened: as §1
# Gemcitabine + Navitoclax = compound: Nc1ccn([C@@H]2O[C@H](CO)[C@@H](O)C2(F)F)c(=O)n1 [Gemcitabine] + CC1(C)CCC(c2ccc(Cl)cc2)=C(CN2CCN(c3ccc(C(=O)NS(=O)(=O)c4ccc(N[C@H](CCN5CCOCC5)CSc5ccccc5)c(S(=O)(=O)C(F)(F)F)c4)cc3)CC2)C1 [Navitoclax] (partner 0.5 µM)
# Procedure, shortened: as §1
Cell Line,relative viability (Gemcitabine + Vorinostat; first compound 0.001 µM),relative viability (Gemcitabine + Vorinostat; first compound 0.003162 µM),relative viability (Gemcitabine + Vorinostat; first compound 0.01 µM),relative viability (Gemcitabine + Vorinostat; first compound 0.03162 µM),relative viability (Gemcitabine + Vorinostat; first compound 0.1 µM),relative viability (Gemcitabine + Pemetrexed; first compound 0.001 µM),relative viability (Gemcitabine + Pemetrexed; first compound 0.003162 µM),relative viability (Gemcitabine + Pemetrexed; first compound 0.01 µM),relative viability (Gemcitabine + Pemetrexed; first compound 0.03162 µM),relative viability (Gemcitabine + Pemetrexed; first compound 0.1 µM),relative viability (Gemcitabine + Linsitinib; first compound 0.001 µM),relative viability (Gemcitabine + Linsitinib; first compound 0.003162 µM),relative viability (Gemcitabine + Linsitinib; first compound 0.01 µM),relative viability (Gemcitabine + Linsitinib; first compound 0.03162 µM),relative viability (Gemcitabine + Linsitinib; first compound 0.1 µM),relative viability (Gemcitabine + Navitoclax; first compound 0.001 µM),relative viability (Gemcitabine + Navitoclax; first compound 0.003162 µM),relative viability (Gemcitabine + Navitoclax; first compound 0.01 µM),relative viability (Gemcitabine + Navitoclax; first compound 0.03162 µM),relative viability (Gemcitabine + Navitoclax; first compound 0.1 µM)
NCI-H358,0.988,0.186,0.0888,0.113,0.0707,0.145,0.148,0.146,0.118,0.108,0.653,0.327,0.186,0.23,0.157,–,–,–,–,–
NCI-H522,0.829,0.63,0.4,0.331,0.294,0.954,0.953,0.419,0.367,0.316,–,–,–,–,–,–,–,–,–,–
NCI-H650,0.38,0.25,0.15,0.121,0.111,0.865,0.555,0.222,0.128,0.12,0.634,0.282,0.21,0.153,0.147,–,–,–,–,–
NCI-H661,0.766,0.725,0.598,0.303,0.234,0.895,0.998,0.891,0.299,0.216,0.534,0.406,0.245,0.198,0.15,–,–,–,–,–
NCI-H727,1.29,0.716,0.456,0.513,0.428,–,–,–,–,–,0.325,0.277,0.236,0.219,0.213,0.311,0.229,0.115,0.146,0.081
NCI-H1563,–,–,–,–,–,0.748,0.852,0.833,0.407,0.414,1.5,1.12,1.08,0.734,0.531,–,–,–,–,–
NCI-H1648,0.435,0.388,0.461,0.288,0.209,0.836,0.64,0.628,0.339,0.349,–,–,–,–,–,–,–,–,–,–
NCI-H1650,0.55,0.33,0.34,0.21,0.127,0.362,0.326,0.305,0.157,0.172,–,–,–,–,–,1.57,0.851,0.434,0.176,0.11
NCI-H1703,–,–,–,–,–,–,–,–,–,–,0.774,0.228,0.103,0.101,0.132,0.73,0.178,0.141,0.118,0.102
NCI-H1792,–,–,–,–,–,0.773,0.174,0.0569,0.0984,0.0556,0.561,0.363,0.131,0.109,0.0721,0.828,0.581,0.133,0.0844,0.0803
NCI-H2170,0.829,0.843,0.538,0.113,0.105,0.289,0.259,0.314,0.127,0.119,–,–,–,–,–,0.72,0.52,0.458,0.183,0.162
NCI-H2342,0.732,0.56,0.452,0.346,0.289,0.821,0.698,0.748,0.412,0.337,–,–,–,–,–,–,–,–,–,–
SW 900,0.476,0.374,0.236,0.129,0.146,0.476,0.401,0.171,0.124,0.109,–,–,–,–,–,–,–,–,–,–
